Experimental data reported in US20150105349A1, “(R)-(-)-1,2-propanediol compositions and methods” (priority 2013, published 2015).
Like-named read-outs stand apart in the source and are kept apart here.

Experiments:
humans = settings: based on intravenous infusion studies; cited from earlier work
rodents = settings: oral; cited from earlier work
[1] = tested on: dorsal surface of the tongue; settings: 6 subjects; 100-fold variation in individual sensitivity; cited from earlier work
philtrum skin [2] = assay: philtrum skin cooling bioassay (subjective coolness rating 0-3); format: in vivo, human; settings: for Ratio of AUC 75/25% R/S to 25/75% R/S (fold increase in cooling activity): 49% distilled water, 1% ethanol
From the text: The term “alcoholic solvent” refers to a chemical with one to four carbons with at least one hydroxyl group attached to a carbon atom. A reliable place for topical application is the skin above the upper lip (above the vermilion border of the lips), on the philtrum, lateral to the philtrum until the nasolabial folds, and on the lower nostrils (subnasale). This part of the face is known to be densely innervated with cold receptors, second only to the surfaces of the eyeball and anogenitalia. Tingling, cool and cold sensations from the skin may be experienced and rated for time of onset and intensity.
The intervals for recording sensations are 5 to 10 minutes, until two successive zeros are obtained. The results (shown in the Figures) are averaged values of 4 to 6 separate trials in the same individual. The data are plotted using SigmaPlot (Systat Software, Point Richmond, Calif.) and a smoothing function with a negative exponential was used for analysis and statistical fit of the results. The onset of drug action is taken as the time to reach 2 units of coolness intensity, and offset of drug action is the time when coolness intensity drops below 2, after previously surpassing 2 units. […] The duration of cooling action is defined as the offset time minus the onset time and the primary index of effect. As described in Examples, the test compounds were tested at 2 to 10 mg/mL of vehicle.
For assays on the skin, the cooling agent(s) was dissolved in the alcoholic solvent to yield a 2, 2.5, 3, 5 or 10 mg/mL solution. Using a cotton-tipped applicator (e.g. Q-tips®) 0.10 to 0.25 mL of the test solution was applied to the skin above the upper lip, on the philtrum, and lateral to the philtrum up to the nasolabial folds, and the onset and duration of cooling sensations noted. […] The interval for recording sensations was at 5 to 10 minute intervals, until at least two successive zeros were obtained. The results were averaged values of 3 to 6 separate trials in the same individual. The “onset” is the time taken to reach a coolness intensity value of 2. […] The “off-set” is when the coolness intensity drops below 2, and the duration is the time of off-set minus the time of onset. The area under the curve (AUC) gives an estimate of the intensity and duration of drug action and can be obtained from the plotted data using SigmaPlot (Systat Software, Point Richmond, Calif.). The AUC unit is the product of cooling intensity x min.

[3] = target: T1, cloned hTRPM8 channel (human TRPM8 gene, expressed in CHO cells) (Homo sapiens, UniProt Q7Z2W7); assay: agonist activity on cloned hTRPM8 channel, Fluo-8 calcium kit, FLIPR; format: cell-based
T1 construct: host or cells: CHO cells
Description: The in vitro effects of test articles were evaluated on cloned hTRPM8 channel (encoded by the human TRPM8 gene, expressed in CHO cells) using a Fluo-8 calcium kit and a Fluorescence Imaging Plate Reader (FLIPR^TETRA™) instrument. […] The total number of carbons in these trialkylphosphine oxides ranged from 12 to 15.
To further examine solvent-receptor interactions, stock solutions of 1-7 [1-(Diisopropyl-phosphinoyl)-heptane] were prepared in dimethyl sulfoxide (DMSO) or DMSO containing 10% or 30% by volume of the three isomers of 1,2-propanediol, (R/S-PD, R-PD, and S-PD) and stored frozen. Six dose levels were tested ranging from 0.003 to 3 μM. Ten μl of the test article solution were added to 40 μl of cells in HBPS in glass-lined 384-well compound plates, and placed into the FLIPR instrument for the fluorescence readout (Molecular Devices Corporation, Union City, Calif.).

[4] = tested on: periorbital skin and skin above the cheekbone; assay: cosmetic wipe over periorbital skin and skin above the cheekbone, six female subjects; format: in vivo, human; settings: 10 mg/mL in water (50%), 10% (S)-, 40% (R)-1,2-propanediol
Description: Six female subjects working at a cosmetics company volunteered to try topical applications of 1-7 and/or 1-8, formulated at 10 mg/mL in water (50%) and 10% (S)-1,2-propanediol, 40% (R)-1,2-propanediol wt/wt. The liquid was put on a cotton square and wiped over the periorbital skin and the skin above the cheekbone. All the subjects remarked on a refreshing coolness on the skin at the sites of application within 2 min after application. There was a “wow” effect, that was considered pleasant and stimulating. […] Four of the six subjects said they felt more “awake and energetic.”

[5] = tested on: axillary skin lesion of plaque psoriasis (itch, burning); assay: topical application to axillary plaque psoriasis lesion, one subject; format: in vivo, human; settings: 2% in 1% ethanol-99% (R)-1,2-propanediol, swab stick, first application at night
From the text: A person with an 8-year history of plaque psoriasis complained of an axillary skin lesion that itched, had burning sensations, and kept them awake at night. Their condition was severe and chronic. Their parent complained that they had to vacuum their bedroom every day in order to remove flaking skin debris. […] They volunteered to try CPS-148, 2% dissolved in 1% ethanol-99% (R)-1,2-propanediol, and was given instructions on how to apply the solution to their site of itch with a swab stick (Q-tip™). They claimed after the first time of application at night the burning sensations and itch disappeared within 5 to 10 min and they were able to have a good nights sleep. They continued to use the solution on an “as-needed basis” for one month and claimed that they slept much better than before.

[6] = tested on: itch (contact dermatitis) on the scalp; assay: topical application to scalp itch (contact dermatitis after hair dye), one individual; format: in vivo, human; settings: 5 mg/mL in 1% ethanol-99% (R)-1,2-propanediol, Yorker spout bottle
Description: An individual developed intense itch (contact dermatitis) on the scalp at the base of the skull after use of hair dye. A cotton-tipped stick was used to apply CPS-410 or CPS-412, 5 mg/mL dissolved in a 1% ethanol-99% (R)-1,2-propanediol, to the site of itch. The itch sensations were suppressed within 5 min after application of either solution and this effect lasted for at least 8 hr. In a second experiment, the solutions were applied using a plastic bottle with a conical Yorker spout. This allowed more precise droplet delivery of the solution to the site of itch. […] The advantage of liquid formulation is the ease of uniform delivery to the inflamed site, a method not achievable with cream or ointment. Itch symptoms of hair and fur occur in seborrheic dermatitis, psoriasis, insect bites, canine pruritus, and allergic dermatitis. Liquid formulations containing (R)-1,2-propanediol and a cooling agent may be therapeutically valuable in these conditions.

philtrum skin [7] = assay: philtrum skin cooling bioassay (subjective coolness rating 0-3); format: in vivo, human
TRPM8 receptor = TRPM8 receptor (Homo sapiens, UniProt Q7Z2W7); settings: cited from earlier work
[8] = 10 mg/mL in (R)-1,2-propanediol
[9] = TRPM8 receptor assay, read-out: EC50 μM (95% C, L.)

T1 sequence (Q7Z2W7 whole entry): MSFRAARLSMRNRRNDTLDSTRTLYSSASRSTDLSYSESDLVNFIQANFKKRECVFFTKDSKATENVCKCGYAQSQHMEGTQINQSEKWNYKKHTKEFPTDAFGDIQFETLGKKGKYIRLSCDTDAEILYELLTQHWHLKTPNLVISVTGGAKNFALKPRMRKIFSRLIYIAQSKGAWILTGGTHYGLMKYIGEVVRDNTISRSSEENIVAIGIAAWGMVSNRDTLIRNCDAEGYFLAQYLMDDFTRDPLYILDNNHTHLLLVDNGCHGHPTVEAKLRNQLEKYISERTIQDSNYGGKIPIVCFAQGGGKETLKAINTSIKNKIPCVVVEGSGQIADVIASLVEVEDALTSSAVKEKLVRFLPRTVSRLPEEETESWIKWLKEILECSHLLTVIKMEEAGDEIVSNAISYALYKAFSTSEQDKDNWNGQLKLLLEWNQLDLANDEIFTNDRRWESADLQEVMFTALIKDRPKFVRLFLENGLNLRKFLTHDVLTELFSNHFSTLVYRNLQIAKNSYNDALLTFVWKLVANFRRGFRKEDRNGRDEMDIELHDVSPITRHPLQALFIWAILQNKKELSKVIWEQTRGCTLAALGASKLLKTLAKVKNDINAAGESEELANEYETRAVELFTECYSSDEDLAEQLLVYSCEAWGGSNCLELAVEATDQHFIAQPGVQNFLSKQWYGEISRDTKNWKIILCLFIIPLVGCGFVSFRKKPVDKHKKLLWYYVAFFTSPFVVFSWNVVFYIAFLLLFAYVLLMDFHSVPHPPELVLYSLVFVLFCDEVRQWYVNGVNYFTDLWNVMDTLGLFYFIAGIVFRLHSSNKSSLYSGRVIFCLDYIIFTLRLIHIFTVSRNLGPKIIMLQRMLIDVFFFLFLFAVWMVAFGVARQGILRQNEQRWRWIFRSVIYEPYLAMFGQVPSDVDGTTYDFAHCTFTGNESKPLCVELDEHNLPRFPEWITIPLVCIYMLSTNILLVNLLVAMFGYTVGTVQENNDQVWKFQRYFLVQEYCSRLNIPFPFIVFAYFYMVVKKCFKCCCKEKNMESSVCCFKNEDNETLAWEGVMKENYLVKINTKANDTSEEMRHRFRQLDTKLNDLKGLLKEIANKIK
Sequence of TRPM8 receptor (Q7Z2W7 whole entry): as above

CC(O)CO (racemic) [racemic 1,2-propanediol]
estimated safe dose (humans): 1 g per kg body weight per day
median lethal dose (rodents): about 25 mL/kg of body weight

CC(C)[C@@H]1CC[C@@H](C)C[C@H]1O (single isomer, unassigned) [(−)-menthol, reference compound]
average threshold for cooling on tongue (Threshold, μg) [1]: 0.25 µg
cooling duration (philtrum skin [2]; 10 mg/mL in 1,3-propanediol): 13 ± 1 min
cooling duration (philtrum skin [2]; [8]): 21 ± 2 min

CCCCCP(=O)(C(C)C)C(C)C [1-5]
Ratio of AUC 75/25% R/S to 25/75% R/S (fold increase in cooling activity) (philtrum skin [2]): 1.5
Potency Relative to I-menthol ([3]; TRPM8 receptor assay): 0.7
EC50 [3, 9]: 5.6 µM

CCCCCCP(=O)(C(C)C)C(C)C [1-6]
Ratio of AUC 75/25% R/S to 25/75% R/S (fold increase in cooling activity) (philtrum skin [2]): 1.7
Potency Relative to I-menthol ([3]; TRPM8 receptor assay): 1.6
EC50 [3, 9]: 2.4 µM

CCCCCCCP(=O)(C(C)C)C(C)C [1-7, 1-(Diisopropyl-phosphinoyl)-heptane]
irritation or redness on the skin after applications [4]: no irritation or redness
time facial skin felt cool and dry after application ([4]; all subjects): at least one hour
Ratio of AUC 75/25% R/S to 25/75% R/S (fold increase in cooling activity) (philtrum skin [2]): 1.6
ratio of the EC50 for the R versus S enantiomers of 1,2-propanediol ([3]; C.L. overlap): about 2
EC50 ([3]; HBPS, 30% volume series, read-out: EC50 (95% C.L.)): 1.6 µM
Potency Relative to I-menthol ([3]; TRPM8 receptor assay): 5.4
EC50 [3, 9]: 0.7 µM
EC50 ([3]; stock in DMSO containing 30% by volume R-PD, read-out: EC50 (95% C.L.)): 2.2 µM
EC50 ([3]; stock in DMSO containing 30% by volume R/S-PD, read-out: EC50 (95% C.L.)): 2.9 µM
EC50 ([3]; stock in DMSO containing 30% by volume S-PD, read-out: EC50 (95% C.L.)): 4.4 µM

CCCCCCCCCP(=O)(C(C)C)C(C)C [1-9]
Potency Relative to I-menthol ([3]; TRPM8 receptor assay): 4.0
EC50 [3, 9]: 0.9 µM

CCCCP(=O)(C(C)CC)C(C)CC (stereo not drawn) [2-4]
Ratio of AUC 75/25% R/S to 25/75% R/S (fold increase in cooling activity) (philtrum skin [2]): 1.9
Potency Relative to I-menthol ([3]; TRPM8 receptor assay): 0.3
EC50 [3, 9]: 14.5 µM

CCCCCP(=O)(C(C)CC)C(C)CC (stereo not drawn) [2-5]
Ratio of AUC 75/25% R/S to 25/75% R/S (fold increase in cooling activity) (philtrum skin [2]): 1.4
Potency Relative to I-menthol ([3]; TRPM8 receptor assay): 2.2
EC50 [3, 9]: 1.7 µM

CCCCCCCCP(=O)(C(C)CC)C(C)CC (stereo not drawn) [2-8]
Potency Relative to I-menthol ([3]; TRPM8 receptor assay): 2.9
EC50 [3, 9]: 1.3 µM

CCCCCCP(=O)(C(C)CC)C(C)CC (stereo not drawn) [CPS-147, 1-(Di-sec-butyl-phosphinoyl)-hexane]
Ratio of AUC 75/25% R/S to 25/75% R/S (fold increase in cooling activity) (philtrum skin [2]): 1.6
Potency Relative to I-menthol ([3]; TRPM8 receptor assay): 4.7
EC50 [3, 9]: 0.8 µM

CCCCCCCP(=O)(C(C)CC)C(C)CC (stereo not drawn) [CPS-148, 1-(Di-sec-butyl-phosphinoyl)-heptane]
time to disappearance of burning sensations and itch [5]: 5 to 10 min
Ratio of AUC 75/25% R/S to 25/75% R/S (fold increase in cooling activity) (philtrum skin [2]): 2.3
agonism at the TRPM8 ion channel [3]: activates TRPM8
Potency Relative to I-menthol ([3]; TRPM8 receptor assay): 3.4
EC50 [3, 9]: 1.1 µM

CCOC(=O)[C@@H](C)NC(=O)[C@@H]1C[C@H](C)CC[C@H]1C(C)C [CPS-369, (R)-2-[((1R,2S,5R)-2-isopropyl-5-methyl-cyclohexanecarbonyl)-amino]-propionic acid ethyl ester]
Cooling Activity % (relative to (R)-1,2-propanediol) (philtrum skin [2]; 10 mg/mL in 1,3-propanediol, inactive = did not exceed 2 units of coolness): inactive
Cooling Activity % (relative to (R)-1,2-propanediol) (philtrum skin [2]; [8]): 100%
Cooling Activity % (relative to (R)-1,2-propanediol) (philtrum skin [2]; 10 mg/mL in (S)-1,2-propanediol, based on AUC): 47%
Cooling Activity % (relative to (R)-1,2-propanediol) (philtrum skin [2]; 10 mg/mL in ethanol, inactive = did not exceed 2 units of coolness): inactive
Cooling Activity % (relative to (R)-1,2-propanediol) (philtrum skin [2]; 10 mg/mL in isopropanol, inactive = did not exceed 2 units of coolness): inactive
Cooling Activity % (relative to (R)-1,2-propanediol) (philtrum skin [2]; 10 mg/mL in n-propanol, inactive = did not exceed 2 units of coolness): inactive
Cooling Activity % (relative to (R)-1,2-propanediol) (philtrum skin [2]; 10 mg/mL in racemic 1,3-butanediol): 10%

CCCOC(=O)[C@@H](C)NC(=O)[C@@H]1C[C@H](C)CC[C@H]1C(C)C [CPS-410, (R)-2-[((1R,2S,5R)-2-isopropyl-5-methyl-cyclohexanecarbonyl)-amino]-propionic acid n-propyl ester]
sensations of coolness after application to scalp [6]: produced sensations of coolness

CCCCOC(=O)[C@@H](C)NC(=O)[C@@H]1C[C@H](C)CC[C@H]1C(C)C [CPS-412, (R)-2-[((1R,2S,5R)-2-isopropyl-5-methyl-cyclohexanecarbonyl)-amino]-propionic acid n-butyl ester]
sensations of coolness after application to scalp [6]: less noticeable

CCNC(=O)C1CC(C)CCC1C(C)C (stereo not drawn) [WS-3, 2-Isopropyl-5-methyl-cyclohexanecarboxylic acid ethylamide]
duration of robust cooling (philtrum skin [7]; 20 mg/mL in 97% (R)-1,2-propanediol-3% ethanol, with prickling and stinging sensations): 38 ± 3 min
cooling effect (philtrum skin [7]; 20 mg/mL in absolute ethanol): did not produce significant cooling

CCOC(=O)CNC(=O)[C@@H]1C[C@H](C)CC[C@H]1C(C)C [WS-5, [((1R,2S,5R)-2-isopropyl-5-methyl-cyclohexanecarbonyl)-amino]-acetic acid ethyl ester, reference compound]
cooling effect (philtrum skin [2]; 10 mg/mL in 100% ethanol): did not produce any cooling effect

CCO [ethanol]
inhibition of TRPM8 receptor response to (−)-menthol (TRPM8 receptor; 0.5% ethanol in the medium): 50%
TRPM8 receptor response to (−)-menthol (TRPM8 receptor; 3% concentration of ethanol): almost totally lost

(R)-(−)-1,2-propanediol [(R)-1,2-propanediol]
effect on ethanol inhibition of WS-5 cooling (philtrum skin [2]; added at 10%, 20% and 40% vol/vol to ethanolic solution of WS-5 10 mg/mL): reversed the ethanol inhibition in a dose-dependent relationship
